Values of other authors, collected in patent US8916562B2, “Methods and compositions for safe and effective treatment of telangiectasia” (Galderma Research & Development SNC, priority 2010, dated 2014).

Settings: brimonidine ophthalmic treatment, clinical trials

patients reporting hypertension, palpitations and syncope: less than 3%
Compound: Brc1c(NC2=NCCN2)ccc2nccnc12 [brimonidine, (5-bromo-quinoxalin-6-yl)-(4,5-dihydro-1H-imidazol-2-yl)-amine]
